From US12600732B2, “Bifunctional compounds for degrading BTK via ubiquitin proteosome pathway” (NURIX THERAPEUTICS, INC., priority 2019, dated 2026)
Read-outs that look alike come from different tables or passages of the source.

Legend:
primary human T cells [1] = test: T cell activation assay, CD25 and CD69 staining (flow cytometry); format: cell-based; conditions: for CD25 Staining Anti-CD3/Anti-CD28 Stimulation / CD69 Staining Anti-CD3/Anti-CD28 Stimulation: fold-change of response relative to baseline; for expression of CD25 and CD69 compared to baseline (anti-CD3/anti-CD28 stimulation alone): primary human T cells
Protocol: (§1) This example evaluates whether CTMs with IMiD activity affect T cell activation. […] These assays were performed to assess whether BTK CTMs with and without IMiD activity affected activation of primary human T cells after stimulation of the T cell receptor with anti-CD3/ati-CD28 stimulation. T cell activation was measured by IL-2 secretion (ELISA assay) and upregulation of activation markers CD25 and CD69 on the surface of T cells (flow cytometry). Data are presented as the fold-change of response relative to baseline (stimulation with anti-CD3/anti-CD28 stimulation in the absence of compound).

TMD8 C481S cells = test: Cell viability assay (CellTiter-Glo), TMD8 C481S cells; conditions: for EC50: Homo sapiens, TMD8, 72 h; for EMAX (% viable cells): TMD8 C481S cells, treatment time 72 h
TMD8 cells = test: Cell viability assay (CellTiter-Glo), TMD8 cells; conditions: for EC50: Homo sapiens, TMD8, 72 h; for EMAX (% viable cells): TMD8 cells, treatment time 72 h
TMD8 tumor cells = test: TMD8 xenograft efficacy study (wild-type BTK); format: in vivo, mouse; conditions: TMD8 WT, IP, QD
Protocol: […] Tumor growth inhibition (% TGI) were calculated on the final day of measurement using the equation [1−(T−T0/C−T0)]×100, where T and C represent the mean size of tumors in the treated (T) and control (C) groups, and T0 refers to the tumor size at randomization.
(§2) This example examines the activity of various BTK CTMs in relevant disease models, including the WT and C481S TMD8 model, which models B cell malignancies with/without inhibitor-driven BTK mutations at C481.

BTK [2] = biological target: BTK (Homo sapiens, UniProt Q06187); test: BTK remaining in TMD8 WT mouse xenograft study; format: in vivo; design: from tissue; host or cells: TMD8 xenograft in CB.17 SCID mice; conditions: IP, QD
Text: Efficacy in Mouse Xenograft Models
as §2

primary human T cells [3] = test: T cell activation assay, IL-2 secretion (ELISA); format: cell-based; conditions: for IL-2 secretion compared to baseline (anti-CD3/anti-CD28 stimulation alone): primary human T cells
Protocol: as §1

Ikaros = biological target: T1, Ikaros (Homo sapiens, UniProt Q13422+Q96SW2); test: Ikaros degradation in Mantle Cell Lymphoma lines (flow cytometry); format: cell-based; conditions: treatment time 24 h
T1 construct: endogenous in cells; host or cells: Mino, Rec-1
Text: (§3) Ikaros and Aiolos Degradation in Mantle Cell Lymphoma Lines (Ikaros and Aiolos Flow Cytometry)
(§4) This example evaluates the IMiD activity of CTMs in cellular models of Mantle Cell Lymphoma (MCL). […] These assays are to determine potency of CTMs for degrading IMiD neo-substrates in cellular models of MCL and to generate data to inform efficacy studies in MCL xenografts.

Aiolos = biological target: T2, Aiolos (Homo sapiens, UniProt Q96SW2+Q9UKT9); test: Aiolos degradation in Mantle Cell Lymphoma lines (flow cytometry); format: cell-based; conditions: treatment time 24 h
T2 construct: endogenous in cells; host or cells: Mino, Rec-1
Text: as §3, §4

[4] = system: B cell receptor (BCR) signaling; test: B cell activation assay (flow cytometry), mouse B cells; format: cell-based; conditions: treatment 4 h, IgM stimulation 18 h
Protocol: Compound was present throughout the stimulation. Cells were stained with Live/Dead dye (Fisher L34976) and then fluorophore-conjugated antibodies against CD20 (Biolegend 302330), CD3 (BD Pharmingen 557705), CD86 (Biolegend 305416) and CD69 (Biolegend 310906). Stained cells were fixed in PFA and run on an Attune N×T Acoustic Focusing Flow Cytometer (Thermo-Fisher A29004), and data was analyzed using FlowJo (v10.5.3) and GraphPad Prism (v7.00) software. Single live lymphocytes were gated for B cells (CD20+CD3−) and T cells (CD3+CD20−), and the geometric mean fluorescence intensity (MFI) of CD86 and CD69 was calculated for each population. The MFI of the unstimulated sample was used to quantify baseline activation.
This example evaluates whether CTM treatment affects B cell receptor (BCR) signaling. BTK is activated downstream of the B cell receptor and leads to upregulation of activation markers CD86 and CD69 on the surface of B cells.

[5] = PK data for BTK CTMs (in vivo plasma concentrations); conditions: Mouse Balb/c
Text: The present example evaluates in vivo plasma concentrations of BTK CTMs to develop PK-PD-efficacy relationship and predict human exposure.

BTK C481S = BTK C481S (Homo sapiens, UniProt Q06187, C481S); test: BTK degradation (Total BTK HTRF) in TMD8 cells expressing BTK-C481S; format: cell-based; design: endogenous in cells; host or cells: TMD8 BTK-C481S (clone2C3), Cas9 RNP knock-in; conditions: TMD8 BTK-C481S (clone2C3) cells, treatment time 4 h
Protocol: BTK levels were determined using Cisbio Total-BTK HTRF (Homologous Time-Resolved Fluorescence) kit (63ADK064PEG) according to the manufacturer's protocol. Briefly, cells were incubated in 1× supplied lysis buffer for 30 minutes. In an opaque white low volume 96-well plate (Cisbio, 66PL96005), cell lysate was combined with two different specific BTK antibodies, one conjugated with Eu^3+-Cryptate FRET donor and one conjugated with d2 FRET acceptor. Assay controls include wells containing cell lysate with only the Eu^3+-Cryptate FRET donor antibody and wells containing both HTRF antibodies and lysis buffer without cells or control lysate provided by Cisbio. HTRF ratio was calculated as (acceptor signal at 665 nm/donor signal at 620 nm)×10^4. Background HTRF levels were determined from the control well containing the donor, but no acceptor, antibody. Background HTRF levels were subtracted from all samples. Readouts were reported as HTRF levels relative to HTRF levels of DMSO-treated cells. Four-parameter non-linear regressions were performed in GraphPad Prism 7.02 to obtain DC50 values.
BTK Degradation (Total BTK HTRF) at Four Hours in TMD8 Cells Expressing BTK-C481S
This example evaluates the potency of CTM in degrading […]. The BTK binding moieties utilized in CTMs bind to the BTK active site. This example evaluates whether the active site mutation C481S affects CTM-induced degradation of BTK.

BTK [6] = biological target: T3, BTK (Mus musculus, UniProt P35991); test: In vivo degradation of BTK in mouse PD experiments with oral dosing; conditions: oral dose 30 mg/kg, 24 h, splenocytes, HTRF
T3 construct: from tissue; host or cells: mouse blood B cells / splenocytes (CD-1 or BALB/c)
Method in brief: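 BTK in blood or splenocytes read by flow cytometry (or HTRF), degradation taken as B-cell minus T-cell BTK MFI versus vehicle. Mice (CD-1 or BALB/c) received compound orally, initially 90 mg/kg for 6 h, then lower doses and longer time points.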

Mino cells = test: Cell viability assay (CellTiter-Glo), Mino cells; format: cell-based; conditions: Mino cells, treatment time 72 h
Text: (§5) This example evaluates effects of CTM-mediated degradation on cell viability. […] Mino and Rec-1 are models of Mantle Cell Lymphoma, which is sensitive to IMiDs.

Rec-1 cells = test: Cell viability assay (CellTiter-Glo), Rec-1 cells; format: cell-based
Text: as §5

[7] = 1.4 nM, fold-change of response relative to baseline
[8] = 37 nM, fold-change of response relative to baseline
[9] = 333 nM, fold-change of response relative to baseline (stimulation without compound)

Compound	CD25 Staining Anti-CD3/Anti-CD28 Stimulation (primary human T cells [1]; 1.4 nM)	CD69 Staining Anti-CD3/Anti-CD28 Stimulation (primary human T cells [1]; 1.4 nM)	CD25 Staining Anti-CD3/Anti-CD28 Stimulation (primary human T cells [1]; 37 nM)	CD69 Staining Anti-CD3/Anti-CD28 Stimulation (primary human T cells [1]; 37 nM)	CD25 Staining Anti-CD3/Anti-CD28 Stimulation (primary human T cells [1]; 333 nM)	CD69 Staining Anti-CD3/Anti-CD28 Stimulation (primary human T cells [1]; 333 nM)	EC50 (TMD8 C481S cells) [nM]	EMAX (% viable cells) (TMD8 C481S cells) [%]	EC50 (TMD8 cells) [nM]	EMAX (% viable cells) (TMD8 cells) [%]	IL-2 Secretion Anti-CD3/Anti-CD28 Stimulation (primary human T cells [3]; [7])	IL-2 Secretion Anti-CD3/Anti-CD28 Stimulation (primary human T cells [3]; [8])	IL-2 Secretion Anti-CD3/Anti-CD28 Stimulation (primary human T cells [3]; [9])	DC50 (Ikaros; Mino cells) [nM]	DC50 (Ikaros; Rec-1 cells) [nM]	expression of CD25 and CD69 compared to baseline (anti-CD3/anti-CD28 stimulation alone) (primary human T cells [1])	DC50 (Aiolos; Mino cells) [nM]	DC50 (Aiolos; Rec-1 cells) [nM]	IL-2 secretion compared to baseline (anti-CD3/anti-CD28 stimulation alone) (primary human T cells [3])	also measured
CN1CCN([C@@H]2CCCN(c3cnc(C(N)=O)c(Nc4ccc(N5CCN(CCCCc6cccc7c6CN(C6CCC(=O)NC6=O)C7=O)CC5)cc4)n3)C2)C1=O (stereo partly shown) [Compound 17]	1.06	1.05	1.34	1.23	1.11	1.12	3.71	15	0.6	7	1.59	3.14	2.92							Tumor Growth Inhibition (relative to vehicle) (TMD8 tumor cells; 10 mg/kg, 14 days of dosing): 14%; Tumor Growth Inhibition (relative to vehicle) (TMD8 tumor cells; 30 mg/kg, 14 days of dosing): 66%; Tumor Growth Inhibition (relative to vehicle) (TMD8 tumor cells; 30 mg/kg, 21 days of dosing): 81%; BTK Remaining (% relative to vehicle) (BTK [2]; 10 mg/kg, 14 days of dosing): 20%; BTK Remaining (% relative to vehicle) (BTK [2]; 30 mg/kg, 14 days of dosing): 15%; BTK Remaining (% relative to vehicle) (BTK [2]; 30 mg/kg, 21 days of dosing): 7%
CN1CCN([C@@H]2CCCN(c3cnc(C(N)=O)c(Nc4ccc(C5CCN(C(=O)CCOCCNc6cccc7c6C(=O)N(C6CCC(=O)NC6=O)C7=O)CC5)cc4)n3)C2)C1=O (stereo partly shown) [Compound 25]	1.25	1.18	1.30	1.33	1.39	1.39					2.42	3.35	3.86	29	63	unchanged or decreased levels	10	31	increased IL-2 secretion but not to the level observed with IMiDs	
CN1CCN([C@@H]2CCCN(c3cnc(C(N)=O)c(Nc4ccc5c(c4)CCN(C4CN(c6ccc7c(c6)C(=O)N(C6CCC(=O)NC6=O)C7=O)C4)C5)n3)C2)C1=O (stereo partly shown) [Compound 30]	1.01	1.01	1.14	1.10	1.17	1.16					1.59	3.82	3.95	1100	1000	unchanged or decreased levels	10	34	increased IL-2 secretion but not to the level observed with IMiDs	
NC(=O)c1ncc(N2CCC[C@@H](N3CCOC3=O)C2)nc1Nc1ccc(C2CCN(C[C@H]3CCN(c4ccc5c(c4)C(=O)N(C4CCC(=O)NC4=O)C5=O)C3)CC2)cc1 (stereo partly shown) [Compound 73]							0.054	19	0.004	25										EC50 ([4]; read-out: CD69 EC50): ~0.2 nM; EC50 ([4]; read-out: CD86 EC50): 0.2 nM; AUC ([5]; 1 mg/kg IV): 0.6 µM·h; clearance ([5]; 1 mg/kg IV): 33.8 mL/min/kg; Vd ([5]; 1 mg/kg IV, read-out: Volume of Distribution): 3.4 L/kg; AUC ([5]; 10 mg/kg PO): 2.9 µM·h; bioavailability ([5]; 10 mg/kg PO): 47%; DC50 (BTK C481S): 1.2 nM; % BTK Remaining (BTK [6]): 26%
C=CC(=O)N1CCC[C@@H](n2nc(-c3ccc(Oc4ccccc4)cc3)c3c(N)ncnc32)C1 [Ibrutinib, reference compound]	0.92	0.89	0.74	0.74	0.22	0.22	1040	46	3	16	0.84	0.85	0.34							EC50 (Mino cells; Homo sapiens): 498 nM; EMAX (% viable cells) (Mino cells): 79%; EC50 (Rec-1 cells; Homo sapiens, Rec1, treatment time 72 h): 268 nM; EMAX (% viable cells) (Rec-1 cells; treatment time 72 h): 68%
